These results are taken from patent US11866416B2, “Streptococcus mutans glucosyl transferase inhibitors for dental caries therapy” (UAB Research Foundation, priority 2018, dated 2024).

Each structure is given as a SMILES string. Values after ≈ are worked out from the molar mass of the structure shown. Read-outs that look alike come from different tables or passages of the source.

One data set relates to S. mutans. Kind of data set: microbe, parasite or virus in culture. The data set is classed as cell-based, Streptococcus mutans. As to conditions: for Growth MIC50: Table 8, stilbenes. In a few lines:
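Mid-exponential cultures (OD470 0.6) in THB were exposed to compound concentrations for 16 h, with growth read at OD470 and normalised to 1% DMSO control (100%). CFU/mL were also counted after 24 h at 37 °C and compared with the DMSO control.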

The next data set deals with S. mutans UA159. Kind of data set: Rat model of dental caries. As to conditions: for bacterial colonization versus control group / body weight over the course of the study / buccal, sulcal, and proximal surface caries scores: 100 μM topically twice daily for 4 weeks; for oral tissue (mucosal and gingival tissues) at sacrifice, treated versus non-treated: 100 μM twice daily for 4 weeks. How it is done: Rat model of dental caries. S. mutans in vivo colonization and virulence were evaluated using a rat model of dental caries as previously described (Crowley, P. J., Brady, L. J., Michalek, S. M. & Bleiweis, A. S. Virulence of a spaP Mutant of Streptococcus mutans in a Gnotobiotic Rat Model. Infection and Immunity 67, 1201-1206 (1999)). […] Rats were then infected with S. mutans UA159 for three consecutive days and provided a caries-promoting Teklad Diet 305 containing 5% sucrose (Harlan Laboratories, Inc., Indianapolis, IN.) and sterile drinking water ad libitum. One group of rats was then treated with vehicle control while another group was topically treated with the lead compound at 100 μM twice daily for 4 weeks beginning 10 days post infection. Following each treatment, drinking water was withheld for 60 min. Animals were weighed at weaning and at the termination of the experiment. The animals were euthanized, their mandibles excised for microbiological analysis of plaque samples on MS agar plates and BAP and for scoring of caries by the method of Keyes (Keyes, P. H. Dental caries in the molar teeth of rats. II. A method for diagnosing and scoring several types of lesions simultaneously. Journal of dental research 37, 1088-1099 (1958)). All experimental protocols were approved by University of Alabama at Birmingham Institutional Animal Care and Use Committee. The methods were carried out in accordance with the relevant guidelines and regulations.
Dental caries rat model. […] At the age of 20 days, rat pups were removed from isolators and randomly assigned into five groups. […] Rats were then infected with S. mutans UA159 for three consecutive days and provided a caries-promoting Diet 305, which contains 5% sucrose (TD.80406, diet with 62% corn starch, Harlan Laboratories, Madison, Wis.) and sterile drinking water ad libitum. The rats were then treated with the stilbene, water, or not treated respective of their study group as described above at 100 μM twice daily for 4 weeks beginning 10 days post infection. Drinking water was withheld for one hour after each treatment. Rats were weighed at weaning and after 45 days at the termination of the experiment. The animals were euthanized, their mandibles excised for microbiological analysis of plaque samples on MS agar plates and BAP and for scoring of caries by the method of Keyes. All experimental protocols were approved by the University of Alabama at Birmingham Institutional Animal Care and Use Committee and in accordance with the relevant guidelines and regulations.

Where [1] appears, read: Streptococcus mutans, Table 3, >300 = no inhibition up to 300 μM, NI = no inhibition up to 400 μM, read-out: Growth Inhibition MIC50.
Where [2] appears, read: Streptococcus mutans, Table 4, stilbenes, average of at least 5 measurements, NI = no inhibition, read-out: Growth MIC50.
Where [3] appears, read: average of at least 5 measurements, NI = no inhibition.

On to `NC(=O)c1ccccc1NC(=O)c1cc2cc([N+](=O)[O-])ccc2s1` [#G43], for which, in the data set with S. mutans (up to 200 μM), the “S. mutans cell viability (CFU) versus control” value is “No significant difference”. Further, in the data set with S. mutans UA159, the “bacterial colonization versus control group” value was “did not reach the statistically significant difference”; the “body weight over the course of the study” value is reported as “did not lose weight”; the “buccal, sulcal, and proximal surface caries scores” value (shortened to “buccal, sulcal”) is on record as “significantly reduced”.

For the compound `Oc1cc(O)cc(/C=C/c2ccc(O)c(O)c2)c1` [Piceatannol], the inhibition of S. mutans cell viability (%) at 400 µM in the data set with S. mutans (Streptococcus mutans, 400 μM) was determined as 37%. Also, in the data set with S. mutans (setting [1]), the MIC50 is 564 ± 38 µM (≈ 138 µg/mL). In the data set on S. mutans (setting [2]), the MIC50 turned out to be 564 ± 37.8 µM (≈ 138 µg/mL). In the data set on S. mutans (Streptococcus mutans, at 52 μM, read-out: growth of S. mutans inhibited), the inhibition at 52 µM was under 10%. Besides, the “Growth MIC50” value with S. mutans (setting [3]) was found to be 564 ± 37.8 µM. In the data set with S. mutans UA159, the “bacterial colonization versus control group” value is listed as “not statistically significant”; the “body weight over the course of the study” value is reported as “did not lose weight”; the “buccal, sulcal” value was “significant reduction”; the “oral tissue (mucosal and gingival tissues) at sacrifice, treated versus non-treated” value is listed as “no obvious differences”.

In the case of `Oc1ccc(/C=C/c2cc(O)cc(O)c2)cc1` [Resveratrol, reference compound], the MIC50 with S. mutans (setting [1]) is 546 ± 16 µM (≈ 125 µg/mL). In the data set with S. mutans (setting [2]), the MIC50 worked out at 546 ± 15.9 µM (≈ 125 µg/mL). Moreover, the “Growth MIC50” value in the data set on S. mutans (setting [3]) came to 546.4 ± 15.9 µM. In addition, in the data set with S. mutans UA159, the “bacterial colonization versus control group” value was “not statistically significant”; the “body weight over the course of the study” value is on record as “did not lose weight”; the “buccal, sulcal” value is reported as “significant reduction”; the “oral tissue (mucosal and gingival tissues) at sacrifice, treated versus non-treated” value is reported as “no obvious differences”.
